Data reported in patent publication US6376670B1, “Quinoline-indole antimicrobial agents, uses and compositions related thereto” (Sepracor Inc., priority 1997, dated 2002).
Where two headings read alike, the source gives them in different places.

Tests used:
S. aureus (ATCC 33591) = assay: MIC against S. aureus strain; format: cell-based; conditions: Staphylococcus aureus, ATCC33591
Protocol: (§1) Stock solutions of compounds are prepared with a concentration of 10 mg/mL. These solutions are then diluted 1:4 to give a concentration of 2.5 mg/mL. The compounds are then serially diluted 1:2 for 6 iterations. The concentrations made for each compound are 2.5, 1.25, 0.625, 0.3125, 0.156, 0.078, and 0.039 mg/mL. A control sample (no compound) is run along with each compound tested. All dilutions are made in DMSO.
(§2) All wells of a 96 well microtiter plate are filled with 100 μL of BHI (Brain-Heart Infusion) broth. Columns on the plate are labeled 1-12, and rows are labeled A-H. Each column of wells is used to test one series of diluted compounds. Into each well of 100 μL of BHI broth, 1 μL of diluted compound is placed for a 1:100 dilution. This makes the final concentration of each drug series 25, 12.5, 6.25, 3.125, 1.56, 0.78, 0.39, and 0 μg/mL.
(§3) Test Organism: A sterile 15 mL screw cap tube is filled wth 3 mL of BHI broth. Next, 2-3 colonies of test organism are inoculated into the tube. The tube is then incubated at 37° C. in a CO2 (approx. 7%) atmosphere jar. The organisms are allowed to grow to the density of a 0.5 McFarland standard (10^8 cells/mL). The organism is then inoculated into each well of the microtiter plate containing the diluted compounds to be tested for MIC. The inoculum is 1 μL in volume and represents 10^5 to 10^6 cells/mL.
(§4) After inoculation the plates are covered and incubated at 37° C. and approx. 7-10% CO2 atmosphere overnight (about 16 hours). The plates are then observed for growth, the well with the lowest concentration of drug and no observable growth represents the well determining the MIC.

S. aureus (ATCC 33592) = assay: MIC against S. aureus strain; format: cell-based; conditions: Staphylococcus aureus, ATCC33592
Protocol: as §1, §2, §3, §4

S. aureus (ATCC 29213) = assay: MIC against S. aureus strain; format: cell-based; conditions: Staphylococcus aureus, ATCC29213
Protocol: as §1, §2, §3, §4

S. aureus (ATCC 25923) = assay: MIC against S. aureus strain; format: cell-based; conditions: Staphylococcus aureus, ATCC25923
Protocol: as §1, §2, §3, §4

[1] = tested on: ciprofloxacin-resistant Staphylococcus aureus (CRSA); assay: Determination of MIC values (BHI broth, 96 well microtiter plate); format: cell-based; conditions: MRSA, cells marked [CRSA], overnight 37° C., read-out: MIC [CRSA] (printed in MRSA column)
Procedure, shortened: (§5)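 Broth microdilution in Brain-Heart Infusion with twofold dilution series from 25 µg/mL final and a no-compound control. Overnight incubation at 37° C in a CO2 atmosphere; visual growth endpoint gives the MIC.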

Streptococcus pneumoniae = assay: as above; format: cell-based; conditions: BHI broth; for MIC: Streptococcus pneumoniae, read-out: MIC S. pneu
Procedure, shortened: as §5

[2] = tested on: vancomycin-resistant Enterococcus spp. (VRE); assay: as above; format: cell-based; conditions: BHI broth; for MIC: Enterococcus, VRE, read-out: MIC VREF
Procedure, shortened: as §5

[3] = Acute in vivo toxicity in mice, intraperitoneal injection; conditions: in 10% w/v hydroxypropyl-β-cyclodextrin in 0.9% w/v saline, 5 mice
Protocol: Solutions of compounds in 10% w/v hydroxypropyl-β-cyclodextrin in 0.9% w/v saline were prepared. Doses of 40 mg/kg or 120 mg/kg of each compound were administered to mice (5 mice/compound/dose) via intraperitoneal injections. The mice […] for seven days.

[4] = tested on: methicillin-resistant Staphylococcus aureus (MRSA); assay: Determination of MIC values (BHI broth, 96 well microtiter plate); format: cell-based; conditions: for MIC: Staphylococcus aureus, MRSA, read-out: MIC MRSA
Procedure, shortened: as §5

VISA-5836 = assay: MIC against VISA strain; format: cell-based; conditions: Staphylococcus aureus
Protocol: as §1, §2, §3, §4

VISA-5827 = assay: MIC against VISA strain; format: cell-based; conditions: Staphylococcus aureus
Protocol: as §1, §2, §3, §4

[5] = 16 h, BHI broth, 37° C., about 16 hours

| Compound | MIC (S. aureus (ATCC 33591)) [µg/mL] | MIC (S. aureus (ATCC 33592)) [µg/mL] | MIC (S. aureus (ATCC 29213)) [µg/mL] | MIC (S. aureus (ATCC 25923)) [µg/mL] | MIC [4] [µg/mL] | MIC (VISA-5836) [µg/mL] | MIC (VISA-5827) [µg/mL] | also measured |
| --- | --- | --- | --- | --- | --- | --- | --- | --- |
| NCC(O)CNC(=O)c1cc(-c2c[nH]c3ccc(Br)cc23)nc2cc(Cl)cc(Cl)c12 (stereo not shown) [Entry 11] | < 7 | < 7 | < 7 | < 7 |  |  |  |  |
| NCc1ccc(CNC(=O)c2cc(-c3c[nH]c4ccc(Br)cc34)nc3ccccc23)cc1 [Example 284] |  |  |  |  |  |  |  | MIC [1]: < 7 µg/mL |
| NCCNC(=O)c1cc(-c2c[nH]c3ccc(Br)cc23)nc2ccc(Cl)cc12 [Example 286] |  |  |  |  |  |  |  | MIC (Streptococcus pneumoniae; S. pneu, overnight 37° C.): < 7 µg/mL; MIC ([2]; VREF, overnight 37° C.): < 7 µg/mL; MIC [1]: < 7 µg/mL |
| NCCNC(=O)c1cc(-c2c[nH]c3ccc(Br)cc23)nc2cc(I)ccc12 [Example 296] |  |  |  |  |  |  |  | MIC (Streptococcus pneumoniae; S. pneu, overnight 37° C.): < 7 µg/mL; MIC ([2]; VREF, overnight 37° C.): < 7 µg/mL; MIC [1]: < 7 µg/mL |
| NCCNC(=O)c1cc(-c2c[nH]c3ccc(Br)cc23)nc2c(I)cccc12 [Example 320] |  |  |  |  |  |  |  | MIC (Streptococcus pneumoniae; S. pneu, overnight 37° C.): < 7 µg/mL; MIC ([2]; VREF, overnight 37° C.): < 7 µg/mL; MIC [1]: < 7 µg/mL |
| Cn1cc(-c2cc(C(=O)NCc3ccc(CN)cc3)c3ccc(F)cc3n2)c2cc(Br)ccc21 [Example 323] |  |  |  |  |  |  |  | MIC (Streptococcus pneumoniae; S. pneu, overnight 37° C.): < 7 µg/mL; MIC ([2]; VREF, overnight 37° C.): < 25 µg/mL; MIC [1]: < 7 µg/mL |
| CCOC(=O)n1cc(-c2cc(C(=O)NCc3cccc(CN)c3)c3cc(I)ccc3n2)c2cc(Br)ccc21 [Example 324] |  |  |  |  |  |  |  | MIC (Streptococcus pneumoniae; S. pneu, overnight 37° C.): > 25 µg/mL; MIC ([2]; VREF, overnight 37° C.): > 25 µg/mL; MIC [1]: > 25 µg/mL |
| Cn1cc(-c2cc(C(=O)NCCN)c3ccc(I)cc3n2)c2cc(Br)ccc21 [Example 329] |  |  |  |  |  |  |  | MIC (Streptococcus pneumoniae; S. pneu, overnight 37° C.): < 7 µg/mL; MIC ([2]; VREF, overnight 37° C.): < 7 µg/mL; MIC [1]: < 7 µg/mL |
| Cn1cc(-c2cc(C(=O)NCCN)c3cc(C#CCN4CCCCC4)c(Cl)cc3n2)c2cc(Br)ccc21 [Example 419] |  |  |  |  |  |  |  | Mice Surviving on Day 7 ([3]; 40 mg/kg intraperitoneal): 40%; Mice Surviving on Day 7 ([3]; 120 mg/kg intraperitoneal): 0%; MIC (Streptococcus pneumoniae; 37° C., about 16 hours): < 7 µg/mL; MIC [4, 5]: < 7 µg/mL; MIC ([2]; 16 h, 37° C., about 16 hours): < 7 µg/mL |
| Cn1cc(-c2cc(C(=O)NCCN)c3ccc(Cl)cc3n2)c2cc(Br)ccc21 [Example 420] |  |  |  |  |  |  |  | Mice Surviving on Day 7 ([3]; 40 mg/kg intraperitoneal): 100%; Mice Surviving on Day 7 ([3]; 120 mg/kg intraperitoneal): 100%; MIC (Streptococcus pneumoniae; 37° C., about 16 hours): < 7 µg/mL; MIC [4, 5]: < 7 µg/mL; MIC ([2]; 16 h, 37° C., about 16 hours): < 7 µg/mL |
| OCc1cc(-c2c[nH]c3ccc(Br)cc23)nc2cc(F)ccc12 [Example 447] |  |  |  |  |  |  |  | Mice Surviving on Day 7 ([3]; 40 mg/kg intraperitoneal): 100%; Mice Surviving on Day 7 ([3]; 120 mg/kg intraperitoneal): 80%; MIC S. pneu (Streptococcus pneumoniae; 37° C., about 16 hours): < 7 µg/mL; MIC MRSA ([4]; BHI broth, 37° C., about 16 hours): < 7 µg/mL; MIC VREF ([2]; 37° C., about 16 hours): <7 µg/mL |
| Fc1ccc2c(-c3cc(Cl)c4ccc(Cl)cc4n3)c[nH]c2c1 [Example 461] |  |  |  |  |  |  |  | Mice Surviving on Day 7 ([3]; 40 mg/kg intraperitoneal): 100%; Mice Surviving on Day 7 ([3]; 120 mg/kg intraperitoneal): 100%; MIC (Streptococcus pneumoniae; 37° C., about 16 hours): < 7 µg/mL; MIC [4, 5]: < 7 µg/mL; MIC ([2]; 16 h, 37° C., about 16 hours): < 7 µg/mL |
| Cc1ccc2[nH]cc(-c3cc(Cl)c4ccc(Cl)cc4n3)c2c1 [Example 474] |  |  |  |  |  |  |  | Mice Surviving on Day 7 ([3]; 40 mg/kg intraperitoneal): 100%; Mice Surviving on Day 7 ([3]; 120 mg/kg intraperitoneal): 100%; MIC (Streptococcus pneumoniae; 37° C., about 16 hours): < 7 µg/mL; MIC [4, 5]: < 7 µg/mL; MIC ([2]; 16 h, 37° C., about 16 hours): < 25 µg/mL |
| NCc1ccc(CNC(=O)c2cc(-c3c[nH]c4ccc(Br)cc34)nc3ccc(C#CCN4CCCCC4)cc23)cc1 [compound 1] | < 7 | < 7 | < 7 | < 7 |  |  |  |  |
| NCc1ccc(CNC(=O)c2cc(-c3c[nH]c4ccc(Br)cc34)nc3ccccc23)cc1 [compound 1] |  |  |  |  | < 7 | < 7 | < 7 |  |
| COc1ccc(NC(=O)c2cc(-c3c[nH]c4ccc(Br)cc34)nc3ccc(C#CCN4CCCCC4)cc23)cc1 [compound 2] | < 7 | < 7 | < 7 | < 7 |  |  |  |  |

| Compound | MIC (S. aureus (ATCC 33591)) [µg/mL] | MIC (S. aureus (ATCC 33592)) [µg/mL] | MIC (S. aureus (ATCC 29213)) [µg/mL] | MIC (S. aureus (ATCC 25923)) [µg/mL] | MIC [4] [µg/mL] | MIC (VISA-5836) [µg/mL] | MIC (VISA-5827) [µg/mL] | also measured |
| --- | --- | --- | --- | --- | --- | --- | --- | --- |
| NCc1ccc(CNC(=O)c2cc(-c3c[nH]c4ccc(Br)cc34)nc3ccc(C#CCN4CCCCC4)cc23)cc1 [compound 2] |  |  |  |  | < 7 | < 7 | < 7 |  |
| COC(=O)c1cc(-c2c[nH]c3ccc(Br)cc23)nc2cc(F)ccc12 [compound 3] | < 7 | < 7 | < 7 | < 7 |  |  |  |  |
| COc1ccc(NC(=O)c2cc(-c3c[nH]c4ccc(Br)cc34)nc3ccc(C#CCN4CCCCC4)cc23)cc1 [compound 3] |  |  |  |  | < 7 | < 7 | < 7 |  |
| COC(=O)c1cc(-c2c[nH]c3ccc(Br)cc23)nc2cc(F)ccc12 [compound 4] |  |  |  |  | < 7 | < 7 | < 7 |  |
| NCCNC(=O)c1cc(-c2c[nH]c3ccc(Br)cc23)nc2cc(Cl)c(C#CCN3CCCCC3)cc12 [compound 4] | < 7 | < 7 | < 7 | < 7 |  |  |  |  |
| COc1ccc2nc(-c3c[nH]c4ccc(Cl)cc34)ccc2c1 [compound 5] | < 7 | < 7 | < 7 | < 7 |  |  |  |  |
| NCCNC(=O)c1cc(-c2c[nH]c3ccc(Br)cc23)nc2cc(Cl)c(C#CCN3CCCCC3)cc12 [compound 5] |  |  |  |  | < 7 | < 7 | < 7 |  |
| COc1ccc2nc(-c3c[nH]c4ccc(Cl)cc34)ccc2c1 [compound 6] |  |  |  |  | < 7 | < 7 | < 7 |  |
| OCc1cc(-c2c[nH]c3ccc(Br)cc23)nc2cc(F)ccc12 [compound 6] | < 7 | < 7 | < 7 | < 7 |  |  |  |  |
| NCc1cc(-c2c[nH]c3ccc(Br)cc23)nc2cc(Cl)ccc12 [compound 7] | < 7 | < 7 | < 7 | < 7 |  |  |  |  |
| OCc1cc(-c2c[nH]c3ccc(Br)cc23)nc2cc(F)ccc12 [compound 7] |  |  |  |  | < 7 | < 7 | < 7 |  |
| Brc1ccc2[nH]cc(-c3nc4ccc(C#CCN5CCCCC5)cc4c4c3CCO4)c2c1 [compound 8] | < 7 | < 7 | < 7 | < 7 |  |  |  |  |
| NCc1cc(-c2c[nH]c3ccc(Br)cc23)nc2cc(Cl)ccc12 [compound 8] |  |  |  |  | < 7 | < 7 | < 7 |  |
| Brc1ccc2[nH]cc(-c3nc4ccc(C#CCN5CCCCC5)cc4c4c3CCO4)c2c1 [compound 9] |  |  |  |  | < 7 | < 7 | < 7 |  |
| CC(C)CNC(=O)c1cc(-c2c[nH]c3ccc(Br)cc23)nc2ccc(C#CCN3CCCCC3)cc12 [compound 9] | < 7 | > 25 | < 7 | < 25 |  |  |  |  |
| CN(CC[N+](C)(C)C)C(=O)c1cc(-c2c[nH]c3ccc(Br)cc23)nc2cc(Cl)ccc12 [compound 10] | < 7 | < 7 | < 7 | < 7 | < 7 | < 7 | < 7 |  |
